Assay results reported in patent US7851474B2, “Dipiperazinyl ketones and related analogues” (Neurogen Corporation, priority 2005, dated 2010).

Target: T1, chimeric human H3 receptor (Homo sapiens, UniProt Q9Y5N1, E19D)
T1 construct: made in house; host or cells: Sf9 insect cells (baculovirus infection); P2 membrane preparation
Assay: Chimeric human H3 receptor screening GTP binding assay (inhibition of histamine-stimulated GTP-gamma35S binding, Example 8)
Assay type: biochemical
Conditions: 1 h; "+" in Ki of Table II; assay of Example 8; read-out: percent inhibition of agonist-induced GTP-gammaS binding to H3
Summary of the method: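 Data are percent inhibition of the 1 μM histamine-stimulated GTP-gamma35S (125 pM) binding, after non-specific binding (10 uM GTP-gammaS) is subtracted. Test compound at 4 μM. Incubation was 60 min at room temperature with Sf9 membranes bearing receptor plus G-protein subunits, buffer pH 7.4 with 10 μM GDP, and filtration read-out.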

T1 sequence (Q9Y5N1 with tags, fused parts or gaps E19D): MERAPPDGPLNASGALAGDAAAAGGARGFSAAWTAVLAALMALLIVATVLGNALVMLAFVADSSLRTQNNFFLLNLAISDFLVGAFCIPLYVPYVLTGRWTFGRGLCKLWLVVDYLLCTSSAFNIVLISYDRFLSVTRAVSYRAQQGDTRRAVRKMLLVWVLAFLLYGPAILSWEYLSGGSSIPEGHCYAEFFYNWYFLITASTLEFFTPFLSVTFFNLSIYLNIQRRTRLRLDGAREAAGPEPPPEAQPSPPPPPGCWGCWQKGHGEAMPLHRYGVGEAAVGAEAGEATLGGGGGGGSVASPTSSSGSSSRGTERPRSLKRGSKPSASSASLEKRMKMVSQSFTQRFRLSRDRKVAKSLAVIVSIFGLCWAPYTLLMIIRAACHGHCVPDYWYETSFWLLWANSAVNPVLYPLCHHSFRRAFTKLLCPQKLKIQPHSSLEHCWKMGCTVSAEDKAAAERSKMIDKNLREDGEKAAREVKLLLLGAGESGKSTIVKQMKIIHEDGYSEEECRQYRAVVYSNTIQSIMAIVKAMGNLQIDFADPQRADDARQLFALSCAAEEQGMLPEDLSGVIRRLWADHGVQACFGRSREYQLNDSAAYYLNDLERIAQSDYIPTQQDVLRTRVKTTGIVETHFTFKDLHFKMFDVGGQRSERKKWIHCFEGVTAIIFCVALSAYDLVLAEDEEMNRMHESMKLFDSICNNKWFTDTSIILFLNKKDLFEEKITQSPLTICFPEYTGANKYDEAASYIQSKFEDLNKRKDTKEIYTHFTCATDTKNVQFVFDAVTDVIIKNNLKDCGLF

SMILES | inhibition at 4 µM
Cc1ccsc1C(=O)N1CCN(CC(=O)N2CCN(C3CCC3)CC2)CC1 [Compound 553, 1-cyclobutyl-4-({4-[(3-methyl-2-thienyl)carbonyl]piperazin-1-yl}acetyl)piperazine] | > 90%
Cc1cccc(OCC(=O)N2CCN(CC(=O)N3CCN(C4CCC4)CC3)CC2)c1 [Compound 554, 1-cyclobutyl-4-({4-[(3-methylphenoxy)acetyl]piperazin-1-yl}acetyl)piperazine] | > 90%
Cc1cccc(CC(=O)N2CCN(CC(=O)N3CCN(C4CCC4)CC3)CC2)c1 [Compound 555, 1-cyclobutyl-4-({4-[(3-methylphenyl)acetyl]piperazin-1-yl}acetyl)piperazine] | > 90%
O=C(Cc1cccc(Oc2ccccc2)c1)N1CCN(CC(=O)N2CCN(C3CCC3)CC2)CC1 [Compound 556, 1-cyclobutyl-4-({4-[(3-phenoxyphenyl)acetyl]piperazin-1-yl}acetyl)piperazine] | > 90%
CCOc1ccc(CC(=O)N2CCN(CC(=O)N3CCN(C4CCC4)CC3)CC2)cc1OC [Compound 557, 1-cyclobutyl-4-({4-[(4-ethoxy-3-methoxyphenyl)acetyl]piperazin-1-yl}acetyl)piperazine] | > 90%
O=C(COc1ccc(F)cc1)N1CCN(CC(=O)N2CCN(C3CCC3)CC2)CC1 [Compound 558, 1-cyclobutyl-4-({4-[(4-fluorophenoxy)acetyl]piperazin-1-yl}acetyl)piperazine] | > 90%
O=C(Cc1ccc(F)cc1)N1CCN(CC(=O)N2CCN(C3CCC3)CC2)CC1 [Compound 559, 1-cyclobutyl-4-({4-[(4-fluorophenyl)acetyl]piperazin-1-yl}acetyl)piperazine] | > 90%
CC(C)c1ccc(CC(=O)N2CCN(CC(=O)N3CCN(C4CCC4)CC3)CC2)cc1 [Compound 560, 1-cyclobutyl-4-({4-[(4-isopropylphenyl)acetyl]piperazin-1-yl}acetyl)piperazine] | > 90%
COc1cscc1C(=O)N1CCN(CC(=O)N2CCN(C3CCC3)CC2)CC1 [Compound 561, 1-cyclobutyl-4-({4-[(4-methoxy-3-thienyl)carbonyl]piperazin-1-yl}acetyl)piperazine] | > 90%
COc1ccc(OCC(=O)N2CCN(CC(=O)N3CCN(C4CCC4)CC3)CC2)cc1 [Compound 562, 1-cyclobutyl-4-({4-[(4-methoxyphenoxy)acetyl]piperazin-1-yl}acetyl)piperazine] | > 90%
COc1ccc(CC(=O)N2CCN(CC(=O)N3CCN(C4CCC4)CC3)CC2)cc1 [Compound 563, 1-cyclobutyl-4-({4-[(4-methoxyphenyl)acetyl]piperazin-1-yl}acetyl)piperazine] | > 90%
Cc1nnsc1C(=O)N1CCN(CC(=O)N2CCN(C3CCC3)CC2)CC1 [Compound 564, 1-cyclobutyl-4-({4-[(4-methyl-1,2,3-thiadiazol-5-yl)carbonyl]piperazin-1-yl}acetyl)piperazine] | > 90%
Cc1ccc(C(C(=O)N2CCN(CC(=O)N3CCN(C4CCC4)CC3)CC2)c2ccccc2)cc1 (centres unmarked) [Compound 565, 1-cyclobutyl-4-({4-[(4-methylphenyl)(phenyl)acetyl]piperazin-1-yl}acetyl)piperazine] | > 90%
Cc1ccc(CC(=O)N2CCN(CC(=O)N3CCN(C4CCC4)CC3)CC2)cc1 [Compound 566, 1-cyclobutyl-4-({4-[(4-methylphenyl)acetyl]piperazin-1-yl}acetyl)piperazine] | > 90%
O=C(Cc1ccc(Oc2ccccc2)cc1)N1CCN(CC(=O)N2CCN(C3CCC3)CC2)CC1 [Compound 567, 1-cyclobutyl-4-({4-[(4-phenoxyphenyl)acetyl]piperazin-1-yl}acetyl)piperazine] | > 90%
CCc1ccc(C(=O)N2CCN(CC(=O)N3CCN(C4CCC4)CC3)CC2)s1 [Compound 568, 1-cyclobutyl-4-({4-[(5-ethyl-2-thienyl)carbonyl]piperazin-1-yl}acetyl)piperazine] | > 90%
Cc1c(C(=O)N2CCN(CC(=O)N3CCN(C4CCC4)CC3)CC2)cnn1-c1ccccc1 [Compound 569, 1-cyclobutyl-4-({4-[(5-methyl-1-phenyl-1H-pyrazol-4-yl)carbonyl]piperazin-1-yl}acetyl)piperazine] | > 90%
Cc1ccc(C(=O)N2CCN(CC(=O)N3CCN(C4CCC4)CC3)CC2)s1 [Compound 570, 1-cyclobutyl-4-({4-[(5-methyl-2-thienyl)carbonyl]piperazin-1-yl}acetyl)piperazine] | > 90%
CC(Oc1ccc(Cl)cc1Cl)C(=O)N1CCN(CC(=O)N2CCN(C3CCC3)CC2)CC1 (centres unmarked) [Compound 572, 1-cyclobutyl-4-({4-[2-(2,4-dichlorophenoxy)propanoyl]piperazin-1-yl}acetyl)piperazine] | > 90%

Same assay, conditions: 1 h; Table II, "+" in the column headed Ki; assay of Example 8; read-out: percent inhibition of agonist-induced GTP-gammaS binding to H3

inhibition at 4 µM | SMILES
> 90% | CCC(C(=O)N1CCN(CC(=O)N2CCN(C3CCC3)CC2)CC1)c1ccc(OC)cc1 (centres unmarked) [Compound 575, 1-cyclobutyl-4-({4-[2-(4-methoxyphenyl)butanoyl]piperazin-1-yl}acetyl)piperazine]
> 90% | CSc1ccccc1C(=O)N1CCN(CC(=O)N2CCN(C3CCC3)CC2)CC1 [Compound 577, 1-cyclobutyl-4-({4-[2-(methylthio)benzoyl]piperazin-1-yl}acetyl)piperazine]
> 90% | O=C(CN1CCN(C(=O)c2ccccc2OC(F)(F)F)CC1)N1CCN(C2CCC2)CC1 [Compound 578, 1-cyclobutyl-4-({4-[2-(trifluoromethoxy)benzoyl]piperazin-1-yl}acetyl)piperazine]
> 90% | O=C(CN1CCN(C(=O)c2ccccc2C(F)(F)F)CC1)N1CCN(C2CCC2)CC1 [Compound 579, 1-cyclobutyl-4-({4-[2-(trifluoromethyl)benzoyl]piperazin-1-yl}acetyl)piperazine]
> 90% | O=C(CN1CCN(C(=O)c2c(F)cccc2C(F)(F)F)CC1)N1CCN(C2CCC2)CC1 [Compound 582]
> 90% | O=C(CN1CCN(C(=O)c2cccc(C(F)(F)F)c2)CC1)N1CCN(C2CCC2)CC1 [Compound 588, 1-cyclobutyl-4-({4-[3-(trifluoromethyl)benzoyl]piperazin-1-yl}acetyl)piperazine]
> 90% | Cc1ccccc1C(C(=O)N1CCN(CC(=O)N2CCN(C3CCC3)CC2)CC1)C(C)C (centres unmarked) [Compound 591, 1-cyclobutyl-4-({4-[3-methyl-2-(2-methylphenyl)butanoyl]piperazin-1-yl}acetyl)piperazine]
> 90% | O=C(CN1CCN(C(=O)c2ccc(OC(F)F)cc2)CC1)N1CCN(C2CCC2)CC1 [Compound 596, 1-cyclobutyl-4-({4-[4-(difluoromethoxy)benzoyl]piperazin-1-yl}acetyl)piperazine]
> 90% | CCSc1ccc(C(=O)N2CCN(CC(=O)N3CCN(C4CCC4)CC3)CC2)cc1 [Compound 598, 1-cyclobutyl-4-({4-[4-(ethylthio)benzoyl]piperazin-1-yl}acetyl)piperazine]
> 90% | CSc1ccc(C(=O)N2CCN(CC(=O)N3CCN(C4CCC4)CC3)CC2)cc1 [Compound 600, 1-cyclobutyl-4-({4-[4-(methylthio)benzoyl]piperazin-1-yl}acetyl)piperazine]
> 90% | O=C(CN1CCN(C(=O)c2ccc(C(F)(F)F)cc2)CC1)N1CCN(C2CCC2)CC1 [Compound 605, 1-cyclobutyl-4-({4-[4-(trifluoromethyl)benzoyl]piperazin-1-yl}acetyl)piperazine]

Further lines, the compound ahead of its results:

SMILES | inhibition at 4 µM
O=C(CN1CCN(C(=O)c2ccccc2CCc2ccccc2)CC1)N1CCN(C2CCC2)CC1 [Compound 574, 1-cyclobutyl-4-({4-[2-(2-phenylethyl)benzoyl]piperazin-1-yl}acetyl)piperazine] | > 90%
Cc1ccc(Oc2ccccc2C(=O)N2CCN(CC(=O)N3CCN(C4CCC4)CC3)CC2)cc1 [Compound 576] | > 90%
O=C(CN1CCN(C(=O)c2ccc(Oc3cc(Cl)cc(Cl)c3)o2)CC1)N1CCN(C2CCC2)CC1 [Compound 608, 1-cyclobutyl-4-({4-[5-(3,5-dichlorophenoxy)-2-furoyl]piperazin-1-yl}acetyl)piperazine] | > 90%
O=C(CN1CCN(C(=O)C(c2ccccc2)C2CCCCC2)CC1)N1CCN(C2CCC2)CC1 (centres unmarked) [Compound 612, 1-cyclobutyl-4-({4-[cyclohehexyl(phenyl)acetyl]piperazin-1-yl}acetyl)piperazine] | > 90%
O=C(CN1CCN(C(=O)C(c2ccccc2)C2CCCC2)CC1)N1CCN(C2CCC2)CC1 (centres unmarked) [Compound 613, 1-cyclobutyl-4-({4-[cyclopentyl(phenyl)acetyl]piperazin-1-yl}acetyl)piperazine] | > 90%
O=C(/C=C/c1ccccc1C(F)(F)F)N1CCN(CC(=O)N2CCN(C3CCC3)CC2)CC1 [Compound 614, 1-cyclobutyl-4-[(4-{(2E)-3-[2-(trifluoromethyl)phenyl]prop-2-enoyl}piperazin-1-yl)acetyl]piperazine] | > 90%
O=C(/C=C/c1cccc(C(F)(F)F)c1)N1CCN(CC(=O)N2CCN(C3CCC3)CC2)CC1 [Compound 615, 1-cyclobutyl-4-[(4-{(2E)-3-[3-(trifluoromethyl)phenyl]prop-2-enoyl}piperazin-1-yl)acetyl]piperazine] | > 90%
O=C(/C=C/c1ccc(C(F)(F)F)cc1)N1CCN(CC(=O)N2CCN(C3CCC3)CC2)CC1 [Compound 616, 1-cyclobutyl-4-[(4-{(2E)-3-[4-(trifluoromethyl)phenyl]prop-2-enoyl}piperazin-1-yl)acetyl]piperazine] | > 90%
